In patent US11427549B2, “Pyrimidinyloxy benzo-fused compounds as herbicides” (FMC Corporation, priority 2017, dated 2022):

Columns and labels:
[1] = test system: barnyardgrass (Echinochloa crus-galli); assay: Test A preemergence, barnyardgrass; type: in vivo; conditions: Echinochloa crus-galli, pre-emergence, 240 h, 0 to 100 scale (0 no effect, 100 complete control), read-out: Plant response rating, Barnyardgrass; for pest or weed control at 31 g/ha: 31 g ai/ha; for pest or weed control at 125 g/ha: 125 g ai/ha
[2] = test system: kochia (Kochia scoparia); assay: Test A preemergence, kochia; type: in vivo; conditions: Bassia scoparia, pre-emergence, 240 h, 0 to 100 scale (0 no effect, 100 complete control), read-out: Plant response rating, Kochia; for pest or weed control at 31 g/ha: 31 g ai/ha; for pest or weed control at 125 g/ha: 125 g ai/ha
[3] = test system: ragweed (common ragweed, Ambrosia elatior); assay: Test A preemergence, ragweed; type: in vivo; conditions: Ambrosia artemisiifolia, pre-emergence, 240 h, 0 to 100 scale (0 no effect, 100 complete control), read-out: Plant response rating, Ragweed; for pest or weed control at 31 g/ha: 31 g ai/ha; for pest or weed control at 125 g/ha: 125 g ai/ha
[4] = test system: ryegrass, Italian (Italian ryegrass, Lolium multiflorum); assay: Test A preemergence, ryegrass, Italian; type: in vivo; conditions: Lolium multiflorum, pre-emergence, 240 h, 0 to 100 scale (0 no effect, 100 complete control), read-out: Plant response rating, Ryegrass, Italian; for pest or weed control at 31 g/ha: 31 g ai/ha; for pest or weed control at 125 g/ha: 125 g ai/ha
[5] = test system: foxtail, green (green foxtail, Setaria viridis); assay: Test A preemergence, foxtail, green; type: in vivo; conditions: Setaria, pre-emergence, 240 h, 0 to 100 scale (0 no effect, 100 complete control), read-out: Plant response rating, Foxtail, Green; for pest or weed control at 31 g/ha: 31 g ai/ha; for pest or weed control at 125 g/ha: 125 g ai/ha
[6] = test system: pigweed (Amaranthus retroflexus); assay: Test A preemergence, pigweed; type: in vivo; conditions: Amaranthus retroflexus, pre-emergence, 240 h, 0 to 100 scale (0 no effect, 100 complete control), read-out: Plant response rating, Pigweed; for pest or weed control at 31 g/ha: 31 g ai/ha; for pest or weed control at 125 g/ha: 125 g ai/ha
[7] = test system: barnyardgrass (Echinochloa crus-galli); assay: Test A postemergence, barnyardgrass; type: in vivo; conditions: Echinochloa crus-galli, post-emergence, 240 h, 0 to 100 scale (0 no effect, 100 complete control), read-out: Plant response rating, Barnyardgrass; for pest or weed control at 31 g/ha: 31 g ai/ha; for pest or weed control at 125 g/ha: 125 g ai/ha
[8] = test system: kochia (Kochia scoparia); assay: Test A postemergence, kochia; type: in vivo; conditions: Bassia scoparia, post-emergence, 240 h, 0 to 100 scale (0 no effect, 100 complete control), read-out: Plant response rating, Kochia; for pest or weed control at 31 g/ha: 31 g ai/ha; for pest or weed control at 125 g/ha: 125 g ai/ha
[9] = test system: ragweed (common ragweed, Ambrosia elatior); assay: Test A postemergence, ragweed; type: in vivo; conditions: Ambrosia artemisiifolia, post-emergence, 240 h, 0 to 100 scale (0 no effect, 100 complete control), read-out: Plant response rating, Ragweed; for pest or weed control at 31 g/ha: 31 g ai/ha; for pest or weed control at 125 g/ha: 125 g ai/ha
[10] = test system: ryegrass, Italian (Italian ryegrass, Lolium multiflorum); assay: Test A postemergence, ryegrass, Italian; type: in vivo; conditions: Lolium multiflorum, post-emergence, 240 h, 0 to 100 scale (0 no effect, 100 complete control), read-out: Plant response rating, Ryegrass, Italian; for pest or weed control at 31 g/ha: 31 g ai/ha; for pest or weed control at 125 g/ha: 125 g ai/ha
[11] = test system: pigweed (Amaranthus retroflexus); assay: Test A postemergence, pigweed; type: in vivo; conditions: Amaranthus retroflexus, post-emergence, 240 h, 0 to 100 scale (0 no effect, 100 complete control), read-out: Plant response rating, Pigweed; for pest or weed control at 31 g/ha: 31 g ai/ha; for pest or weed control at 125 g/ha: 125 g ai/ha
[12] = test system: wheat (Triticum aestivum); assay: Test A postemergence, wheat; type: in vivo; conditions: Triticum aestivum, post-emergence, 240 h, 0 to 100 scale (0 no effect, 100 complete control), read-out: Plant response rating, Wheat; for plant injury at 31 g/ha: 31 g ai/ha; for plant injury at 125 g/ha: 125 g ai/ha
[13] = test system: corn (Zea mays); assay: Test A postemergence, corn; type: in vivo; conditions: Zea mays, post-emergence, 240 h, 0 to 100 scale (0 no effect, 100 complete control); for Corn plant response rating (crop injury, 0 = no effect, 100 = complete kill) at 31 g/ha: 31 g ai/ha; for Corn plant response rating (crop injury, 0 = no effect, 100 = complete kill) at 125 g/ha: 125 g ai/ha
[14] = test system: blackgrass (Alopecurus myosuroides); assay: Test A postemergence, blackgrass; type: in vivo; conditions: Alopecurus myosuroides, post-emergence, 240 h, 0 to 100 scale (0 no effect, 100 complete control), read-out: Plant response rating, Blackgrass; for pest or weed control at 31 g/ha: 31 g ai/ha; for pest or weed control at 125 g/ha: 125 g ai/ha
[15] = test system: galium (catchweed bedstraw, Galium aparine); assay: Test A postemergence, galium; type: in vivo; conditions: Galium, post-emergence, 240 h, 0 to 100 scale (0 no effect, 100 complete control), read-out: Plant response rating, Galium; for pest or weed control at 31 g/ha: 31 g ai/ha; for pest or weed control at 125 g/ha: 125 g ai/ha
[16] = test system: rice (Oryza sativa); assay: Test B flooded paddy test, rice; conditions: Oryza sativa, read-out: Plant response rating, Rice (0 to 100 scale, 0 is no effect, 100 is complete control)
[17] = test system: ducksalad (Heteranthera limosa); assay: Test B flooded paddy test, ducksalad; conditions: Heteranthera limosa, read-out: Plant response rating, Ducksalad (0 to 100 scale, 0 is no effect, 100 is complete control)
[18] = test system: barnyardgrass (Echinochloa crus-galli); assay: Test B flooded paddy test, barnyardgrass; conditions: Echinochloa crus-galli, read-out: Plant response rating, Barnyardgrass (0 to 100 scale, 0 is no effect, 100 is complete control)

SMILES | pest or weed control at 31 g/ha [1] | pest or weed control at 125 g/ha [1] | pest or weed control at 31 g/ha [2] | pest or weed control at 125 g/ha [2] | pest or weed control at 31 g/ha [3] | pest or weed control at 125 g/ha [3] | pest or weed control at 31 g/ha [4] | pest or weed control at 125 g/ha [4] | pest or weed control at 31 g/ha [5] | pest or weed control at 125 g/ha [5] | pest or weed control at 31 g/ha [6] | pest or weed control at 125 g/ha [6] | pest or weed control at 31 g/ha [7] | pest or weed control at 125 g/ha [7] | pest or weed control at 31 g/ha [8] | pest or weed control at 125 g/ha [8] | pest or weed control at 31 g/ha [9] | pest or weed control at 125 g/ha [9] | pest or weed control at 31 g/ha [10] | pest or weed control at 125 g/ha [10] | also measured
FC(F)(F)CCCC1OCc2cccc(Oc3ncc(Cl)cn3)c21 (stereo not drawn) [Compound 7, 5-chloro-2-[[1,3-dihydro-3-(4,4,4-trifluorobutyl)-4-isobenzofuranyl]oxy]-pyrimidine] | 20% | 90% | 0% | 100% | 0% | 0% | 0% | 50% | 80% | 100% | 20% | 100% | 20% | 60% | 90% | 100% | 0% | 0% | 20% | 60% | pest or weed control at 31 g/ha [11]: 80%; pest or weed control at 125 g/ha [11]: 100%; plant injury at 31 g/ha [12]: 10%; plant injury at 125 g/ha [12]: 30%; Corn plant response rating (crop injury, 0 = no effect, 100 = complete kill) at 31 g/ha [13]: 20%; Corn plant response rating (crop injury, 0 = no effect, 100 = complete kill) at 125 g/ha [13]: 40%; pest or weed control at 31 g/ha [14]: 10%; pest or weed control at 125 g/ha [14]: 70%; pest or weed control at 31 g/ha [15]: 50%; pest or weed control at 125 g/ha [15]: 100%; plant injury at 250 g/ha [16]: 40%; pest or weed control at 250 g/ha [17]: 100%; pest or weed control at 250 g/ha [18]: 40%
FC(F)(F)CCC1OCc2cccc(Oc3ncc(Cl)cn3)c21 (stereo not drawn) [Compound 8, 5-Chloro-2-[[1,3-dihydro-3-(3,3,3-trifluoropropyl)-4-isobenzofuranyl]oxy]pyrimidine] | 80% | 100% | 20% | 100% | 0% | 10% | 10% | 70% | 80% | 100% | 100% | 100% | 10% | 50% | 80% | 90% | 10% | 20% | 10% | 50% | pest or weed control at 31 g/ha [11]: 100%; pest or weed control at 125 g/ha [11]: 100%; plant injury at 31 g/ha [12]: 0%; plant injury at 125 g/ha [12]: 50%; Corn plant response rating (crop injury, 0 = no effect, 100 = complete kill) at 31 g/ha [13]: 10%; Corn plant response rating (crop injury, 0 = no effect, 100 = complete kill) at 125 g/ha [13]: 50%; pest or weed control at 31 g/ha [14]: 30%; pest or weed control at 125 g/ha [14]: 100%; pest or weed control at 31 g/ha [15]: 30%; pest or weed control at 125 g/ha [15]: 80%; plant injury at 250 g/ha [16]: 20%; pest or weed control at 250 g/ha [17]: 100%; pest or weed control at 250 g/ha [18]: 35%
